Test results from publication PMC3996155, “The crystal structure of fibroblast growth factor 18 (FGF18)” (Protein & Cell, 2014).

Molecular target: T1, FGF18 (Homo sapiens, UniProt O76093)
T1 construct: residues 50-194 of the 207-residue precursor (signal peptide 1-27 absent), expressed in Escherichia coli, purified
T1 sequence (O76093 50-194): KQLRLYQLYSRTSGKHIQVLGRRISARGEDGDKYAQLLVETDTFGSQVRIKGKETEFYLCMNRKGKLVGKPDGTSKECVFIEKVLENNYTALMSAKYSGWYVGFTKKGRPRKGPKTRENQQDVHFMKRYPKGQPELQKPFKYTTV
Assay: isothermal titration calorimetry
Format: binding
Conditions: size-defined heparin oligosaccharide, sulfation pattern not stated; error exceeds the value; read-out: affinity

Kd: 2200 nM
Substance: heparin oligosaccharides of 6 dp
